This note sets out measurements from ChEMBL document CHEMBL5584205 (Bioorg Med Chem Lett, 2024).

Broadly, the IC50 is the concentration needed to halve the response being measured. Read a low IC50 as inhibition by little substance.

One assay relates to Neutrophil. The experiment in a line: Inhibition of O2 generation in fMLP/CB-induced human neutrophils by cell based assay. The assay is classed as functional.
For the next assay, the target named is T1, Neutrophil elastase (Homo sapiens, UniProt P08246).
T1 sequence (P08246 whole entry): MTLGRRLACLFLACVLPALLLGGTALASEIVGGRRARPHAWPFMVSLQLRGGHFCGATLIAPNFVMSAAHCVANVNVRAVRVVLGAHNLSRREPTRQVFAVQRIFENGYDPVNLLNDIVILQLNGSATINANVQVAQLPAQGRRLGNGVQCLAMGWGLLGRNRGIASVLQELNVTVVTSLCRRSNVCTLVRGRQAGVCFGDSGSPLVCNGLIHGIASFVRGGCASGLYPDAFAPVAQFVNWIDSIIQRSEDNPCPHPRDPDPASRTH
The experiment in a line: Inhibition of human neutrophil elastase by enzymatic assay.

Assay [1] in a line: Inhibition of elastase release in fMLP/CB-induced human neutrophils by cell based assay. It counts as functional. The settings on record: Neutrophil.
For assay [2], the target named is T2, NAD-dependent protein deacetylase sirtuin-2 (Homo sapiens, UniProt Q8IXJ6).
T2 sequence (Q8IXJ6 whole entry): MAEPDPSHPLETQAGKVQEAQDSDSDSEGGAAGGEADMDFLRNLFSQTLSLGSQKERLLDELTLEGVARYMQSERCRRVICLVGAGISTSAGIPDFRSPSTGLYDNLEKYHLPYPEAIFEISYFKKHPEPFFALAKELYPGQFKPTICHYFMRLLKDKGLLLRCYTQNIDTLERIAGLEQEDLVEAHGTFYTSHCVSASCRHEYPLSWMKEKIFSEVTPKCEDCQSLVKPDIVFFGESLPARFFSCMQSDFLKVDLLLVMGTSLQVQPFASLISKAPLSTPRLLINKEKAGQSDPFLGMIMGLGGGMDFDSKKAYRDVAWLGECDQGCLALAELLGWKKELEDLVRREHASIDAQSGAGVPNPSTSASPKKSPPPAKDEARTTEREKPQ
Put plainly: Inhibition of SIRT2 (unknown origin) activity.

In a further assay the target is T3, Myeloblastin (Homo sapiens, UniProt P24158).
T3 sequence (P24158 whole entry): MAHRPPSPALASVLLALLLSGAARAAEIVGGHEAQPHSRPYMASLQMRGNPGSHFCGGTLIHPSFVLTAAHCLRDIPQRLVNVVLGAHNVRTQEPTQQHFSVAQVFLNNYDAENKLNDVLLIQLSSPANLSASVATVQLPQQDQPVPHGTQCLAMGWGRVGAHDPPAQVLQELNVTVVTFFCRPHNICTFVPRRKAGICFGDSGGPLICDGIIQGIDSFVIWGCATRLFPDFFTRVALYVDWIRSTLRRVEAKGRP
Put plainly: Inhibition of PR3 (unknown origin) activity.

Another assay is filed under the species Homo sapiens. Put plainly: Inhibition of CG (unknown origin).

Structures are written as SMILES. The source made the active and inactive calls. No cut-off for these calls is given here. A value given as a limit tells only on which side of the number the result lay.

Turning to `CC(NC(=O)c1ccccc1/N=C/c1ccccc1O)c1ccccc1` (configuration not stated), the IC50 with Neutrophil is 6.07 µM; against Neutrophil elastase it was more than 50 µM; in assay [1], more than 10 µM.
The corresponding values for `O=C(N[C@@H](C(=O)O)c1ccccc1)c1ccccc1/N=N/c1c(O)ccc2ccccc12` are 1.12 µM, 20.4 µM and 2.36 µM.
The corresponding values for `CC(NC(=O)c1ccccc1/N=C/c1c(O)ccc2ccccc12)c1ccccc1` (configuration not stated) [SIRTINOL] are more than 10 µM, 24.5 µM and 1.92 µM.
In the case of `O=C(N[C@H](C(=O)O)c1ccccc1)c1ccccc1/N=C/c1c(O)ccc2ccccc12`, the IC50 was 2.5 µM with Neutrophil, more than 50 µM at Neutrophil elastase and more than 10 µM in assay [1].
The corresponding values for `COC(=O)[C@H](NC(=O)c1ccccc1/N=C/c1c(O)ccc2ccccc12)c1ccccc1` are 5.56 µM, 38.8 µM and 1.76 µM.
For `CC(NC(=O)c1ccccc1NCc1c(O)ccc2ccccc12)c1ccccc1` (configuration not stated), in that order: more than 10 µM, 26.2 µM and 6.44 µM.
For `COC(=O)[C@H](NC(=O)c1ccccc1/N=C/c1ccccc1O)c1ccccc1`, in that order: 4.36 µM, more than 50 µM and 4.98 µM.
For `COC(=O)[C@H](Cc1ccccc1)NC(=O)c1ccccc1/N=N/c1c(O)ccc2ccccc12`, the IC50 against Neutrophil elastase was 31.2 µM; in assay [1] it was more than 10 µM.
Regarding `COC(=O)[C@@H](NC(=O)c1ccccc1/N=C/c1ccccc1O)c1ccccc1`, the results for the IC50 (with Neutrophil; against Neutrophil elastase; in assay [1]) were more than 10 µM, more than 50 µM and 8.73 µM, respectively.
For `COC(=O)[C@H](NC(=O)c1ccccc1/N=N/c1c(O)ccc2ccccc12)c1ccccc1`, in that order: more than 10 µM, 18.9 µM and more than 10 µM.
For `COC(=O)[C@@H](NC(=O)c1ccccc1/N=N/c1c(O)ccc2ccccc12)c1ccccc1`, in that order: more than 10 µM, 18 µM and more than 10 µM.
For `COC(=O)[C@@H](NC(=O)c1ncccc1/N=N/c1c(O)ccc2ccccc12)c1ccccc1`, the IC50 in the assay on Neutrophil was more than 10 µM; at Neutrophil elastase it was 22.4 µM; in assay [1] it was more than 10 µM.
Regarding `C[C@@H](NC(=O)c1ccccc1/N=C/c1c(O)ccc2ccccc12)C1CCCCC1`, the IC50 in the assay with Neutrophil was more than 10 µM; against Neutrophil elastase, more than 50 µM; in assay [1], more than 10 µM.
With `COC(=O)[C@@H](NC(=O)c1ccccc1/N=C/c1c(O)ccc2ccccc12)c1ccccc1`, the results for the IC50 (in the assay with Neutrophil; at Neutrophil elastase; in assay [1]) were 3.56 µM, more than 50 µM and 3.84 µM, respectively.
With `COC(=O)[C@@H](Cc1ccccc1)NC(=O)c1ccccc1/N=N/c1c(O)ccc2ccccc12`, the concentration for half-maximal inhibition (IC50) was 19.3 µM against Neutrophil elastase and more than 10 µM in assay [1].
As for `O=C(N[C@H](Cc1ccccc1)C(=O)O)c1ccccc1/N=N/c1c(O)ccc2ccccc12`, the IC50 stood at 1.61 µM in the assay on Neutrophil, 20.7 µM on Neutrophil elastase and 1.54 µM in assay [1].
Take `O=C(N[C@H](C(=O)O)c1ccccc1)c1ncccc1/N=N/c1c(O)ccc2ccccc12`: the IC50 in assay [2] amounted to 2.42 µM; on Myeloblastin, 20.7 µM; with Neutrophil it was 0.9 µM; at Neutrophil elastase it was 4.91 µM; in assay [1], 1.86 µM. The inhibition result in the assay listed under Homo sapiens was “inactive”.
With `COC(=O)[C@@H](Cc1ccccc1)NC(=O)c1ccccc1/N=C/c1c(O)ccc2ccccc12`, the IC50 is 4.27 µM with Neutrophil, more than 50 µM at Neutrophil elastase and 1.59 µM in assay [1].
For `CC(NC(=O)c1ccccc1/N=N/c1c(O)ccc2ccccc12)c1ccccc1` (configuration not stated), in that order: more than 10 µM, 12.1 µM and more than 10 µM.
For `O=C(N[C@H](C(=O)O)c1ccccc1)c1ccccc1/N=N/c1c(O)ccc2ccccc12`, in that order: 2.02 µM, 16.8 µM and 2.25 µM.
For the molecule `COC(=O)[C@H](Cc1ccccc1)NC(=O)c1ccccc1/N=C/c1c(O)ccc2ccccc12`, the figures for the IC50 (with Neutrophil; against Neutrophil elastase; in assay [1]) were 2.95 µM, more than 50 µM and 2.09 µM, respectively.
The corresponding values for `O=C(N[C@@H](Cc1ccccc1)C(=O)O)c1ccccc1/N=N/c1c(O)ccc2ccccc12` are 1.31 µM, 21 µM and 1.07 µM.
